Laboratory results published in ChEMBL document CHEMBL1156989, “Discovery of novel small molecule orally bioavailable C-X-C chemokine receptor 4 antagonists that are potent inhibitors of T-tropic (X4) HIV-1 replication” (J Med Chem, 2010).

Legend:
[1] = biological target: T1, C-X-C chemokine receptor type 2 (Homo sapiens, UniProt P25025); experiment: Displacement of radiolabeled IL8 from CXCR2 receptor
T1 sequence (P25025 whole entry): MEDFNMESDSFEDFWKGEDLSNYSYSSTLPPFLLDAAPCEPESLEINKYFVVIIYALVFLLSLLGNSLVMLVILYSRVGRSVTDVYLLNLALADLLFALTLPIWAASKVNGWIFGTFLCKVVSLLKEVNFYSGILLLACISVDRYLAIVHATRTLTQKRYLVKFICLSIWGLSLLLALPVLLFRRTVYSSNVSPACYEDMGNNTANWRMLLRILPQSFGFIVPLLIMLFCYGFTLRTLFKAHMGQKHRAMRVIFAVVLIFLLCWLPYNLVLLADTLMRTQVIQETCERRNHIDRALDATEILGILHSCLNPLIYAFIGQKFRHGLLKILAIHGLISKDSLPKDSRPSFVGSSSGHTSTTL

[2] = tested on: Human immunodeficiency virus 1; experiment: Antiviral activity against HIV1 NL4.3 infected in human PBMC assessed as inhibition of virus-induced cytopathicity; assay type: functional, organism-based; conditions: Human immunodeficiency virus 1, NL4.3
[3] = biological target: C-C chemokine receptor type 5 (Homo sapiens, UniProt P51681); experiment: Displacement of radiolabeled MIP1beta from CCR5 receptor
Chain of C-C chemokine receptor type 5 (P51681 whole entry): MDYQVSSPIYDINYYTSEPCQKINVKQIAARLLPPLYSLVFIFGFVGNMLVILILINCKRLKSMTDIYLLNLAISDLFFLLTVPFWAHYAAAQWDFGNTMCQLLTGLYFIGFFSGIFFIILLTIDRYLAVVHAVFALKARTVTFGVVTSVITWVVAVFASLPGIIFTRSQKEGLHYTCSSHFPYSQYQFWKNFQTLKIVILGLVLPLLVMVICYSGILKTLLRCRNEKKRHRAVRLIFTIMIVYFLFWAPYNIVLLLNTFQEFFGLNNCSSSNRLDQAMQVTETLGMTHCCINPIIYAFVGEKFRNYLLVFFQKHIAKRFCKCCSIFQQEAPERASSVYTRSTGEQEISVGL

[4] = biological target: T2, C-X-C chemokine receptor type 1 (Homo sapiens, UniProt P25024); experiment: Displacement of radiolabeled IL8 from CXCR1 receptor
T2 sequence (P25024 whole entry): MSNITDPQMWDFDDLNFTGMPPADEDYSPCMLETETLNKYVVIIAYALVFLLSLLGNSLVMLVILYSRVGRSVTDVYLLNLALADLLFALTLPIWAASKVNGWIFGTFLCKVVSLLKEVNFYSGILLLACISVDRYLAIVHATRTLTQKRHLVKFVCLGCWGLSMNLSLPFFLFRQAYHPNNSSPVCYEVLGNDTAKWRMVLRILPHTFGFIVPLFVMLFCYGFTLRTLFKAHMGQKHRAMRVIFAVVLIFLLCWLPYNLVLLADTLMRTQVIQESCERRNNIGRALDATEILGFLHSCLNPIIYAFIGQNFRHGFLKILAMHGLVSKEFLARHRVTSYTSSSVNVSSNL

[5] = biological target: T3, C-C chemokine receptor type 4 (Homo sapiens, UniProt P51679); experiment: Displacement of radiolabeled TARC from CCR4 receptor
T3 sequence (P51679 whole entry): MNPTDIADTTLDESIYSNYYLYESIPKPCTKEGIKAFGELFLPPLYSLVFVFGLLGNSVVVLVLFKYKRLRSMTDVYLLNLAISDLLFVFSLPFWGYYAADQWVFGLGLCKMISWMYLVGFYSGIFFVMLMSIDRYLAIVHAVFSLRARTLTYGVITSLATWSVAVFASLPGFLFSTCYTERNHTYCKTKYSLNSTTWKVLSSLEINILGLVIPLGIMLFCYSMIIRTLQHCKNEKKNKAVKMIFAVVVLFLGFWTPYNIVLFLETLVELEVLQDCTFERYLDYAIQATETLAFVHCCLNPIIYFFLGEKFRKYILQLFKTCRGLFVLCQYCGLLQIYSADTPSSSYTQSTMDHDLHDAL

[6] = biological target: C-C chemokine receptor type 2 (Homo sapiens, UniProt P41597); experiment: Displacement of radiolabeled MCP1 from CCR2b receptor
Chain of C-C chemokine receptor type 2 (P41597 whole entry): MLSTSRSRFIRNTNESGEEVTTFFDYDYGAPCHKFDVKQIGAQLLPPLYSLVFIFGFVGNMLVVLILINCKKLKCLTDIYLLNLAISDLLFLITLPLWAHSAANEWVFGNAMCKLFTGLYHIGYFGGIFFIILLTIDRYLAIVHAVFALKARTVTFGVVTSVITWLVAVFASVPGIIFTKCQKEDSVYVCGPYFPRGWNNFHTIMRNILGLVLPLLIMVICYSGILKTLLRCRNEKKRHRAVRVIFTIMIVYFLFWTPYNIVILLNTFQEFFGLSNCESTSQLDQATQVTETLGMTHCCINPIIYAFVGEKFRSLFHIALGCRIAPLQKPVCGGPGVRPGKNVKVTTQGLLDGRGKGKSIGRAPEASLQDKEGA

[7] = biological target: T4, C-C chemokine receptor type 1 (Homo sapiens, UniProt P32246); experiment: Displacement of radiolabeled MIP1alpha from CCR1 receptor
T4 sequence (P32246 whole entry): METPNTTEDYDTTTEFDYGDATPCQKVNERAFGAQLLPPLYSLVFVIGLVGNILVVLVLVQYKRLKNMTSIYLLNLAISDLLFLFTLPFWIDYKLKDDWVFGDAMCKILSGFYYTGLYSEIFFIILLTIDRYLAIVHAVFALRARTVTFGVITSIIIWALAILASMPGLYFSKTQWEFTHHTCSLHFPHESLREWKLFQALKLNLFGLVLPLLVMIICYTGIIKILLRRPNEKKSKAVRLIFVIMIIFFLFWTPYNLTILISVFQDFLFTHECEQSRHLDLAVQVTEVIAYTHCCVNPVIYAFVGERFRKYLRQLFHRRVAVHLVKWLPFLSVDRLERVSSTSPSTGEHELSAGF

[8] = tested on: Human immunodeficiency virus 1; experiment: Antiviral activity against HIV1 NL4.3 infected in human MT4 cells expressing CD4 and CXCR4 assessed as inhibition of virus-induced cytopathicity; assay type: functional, organism-based; conditions: Human immunodeficiency virus 1, NL4.3, MT4
[9] = tested on: Human immunodeficiency virus 1; experiment: Antiviral activity against HIV1 NL4.3 infected in human MT4 cells assessed as inhibition of virus-induced cytopathicity in presence of 10% human serum; assay type: functional, organism-based; conditions: Human immunodeficiency virus 1, NL4.3, MT4
[10] = Cmax in rat; assay type: ADME, organism-based; conditions: in vivo
[11] = Cmax in dog; assay type: ADME, organism-based, Canis lupus familiaris; conditions: in vivo
Rattus norvegicus [12] = experiment: Volume of distribution in rat at 5 mg/kg, iv; assay type: ADME, organism-based; set-up: dose 5 mg/kg, route intravenous; conditions: in vivo
Rattus norvegicus [13] = experiment: Half life in rat at 5 mg/kg, iv; assay type: ADME, organism-based; set-up: dose 5 mg/kg, route intravenous; conditions: in vivo
[14] = Oral bioavailability in rat at 100 mg/kg; assay type: ADME, organism-based; conditions: in vivo
[15] = Oral bioavailability in dog at 6 mg/kg; assay type: ADME, organism-based, Canis lupus familiaris; conditions: in vivo
[16] = biological target: C-X-C chemokine receptor type 4 (Homo sapiens, UniProt P61073); experiment: Inhibition of anti-CXCR4 12G5 monoclonal antibody to CXCR4 in human SUP-T1 cells pretreated for 30 mins by flow cytometry; assay type: cell-based
Chain of C-X-C chemokine receptor type 4 (P61073 whole entry): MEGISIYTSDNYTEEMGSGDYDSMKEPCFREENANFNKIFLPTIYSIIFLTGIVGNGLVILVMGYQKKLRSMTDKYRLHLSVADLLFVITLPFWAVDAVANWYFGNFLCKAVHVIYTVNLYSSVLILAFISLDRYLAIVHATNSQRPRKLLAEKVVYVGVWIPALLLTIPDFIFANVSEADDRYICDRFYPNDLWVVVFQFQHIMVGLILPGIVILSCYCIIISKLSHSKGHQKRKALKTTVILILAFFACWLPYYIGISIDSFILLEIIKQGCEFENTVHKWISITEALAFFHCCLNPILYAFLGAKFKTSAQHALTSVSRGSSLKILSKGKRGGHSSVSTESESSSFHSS

[17] = tested on: Human immunodeficiency virus 1; experiment: Antiviral activity against HIV1 3B infected in human MT4 cells assessed as inhibition of virus-induced cytopathicity in presence of 10% human serum; assay type: functional, organism-based; conditions: Human immunodeficiency virus 1, 3B
Rattus norvegicus [18] = experiment: Volume of distribution in rat at 10 mg/kg, iv; assay type: ADME, organism-based; set-up: dose 10 mg/kg, route intravenous; conditions: in vivo
Canis familiaris [19] = experiment: Volume of distribution in dog at 5 mg/kg, iv; assay type: ADME, organism-based, Canis lupus familiaris; set-up: dose 5 mg/kg, route intravenous; conditions: in vivo
Rattus norvegicus [20] = experiment: Half life in rat at 10 mg/kg, iv; assay type: ADME, organism-based; set-up: dose 10 mg/kg, route intravenous; conditions: in vivo
Canis familiaris [21] = experiment: Half life in dog at 5 mg/kg, iv; assay type: ADME, organism-based, Canis lupus familiaris; set-up: dose 5 mg/kg, route intravenous; conditions: in vivo
[22] = Oral bioavailability in rat at 40 mg/kg; assay type: ADME, organism-based; conditions: in vivo
[23] = Oral bioavailability in dog at 25 mg/kg; assay type: ADME, organism-based, Canis lupus familiaris; conditions: in vivo
[24] = tested on: Human immunodeficiency virus 1; experiment: Antiviral activity against HIV1 3B infected in human MT-4 cells assessed as inhibition of virus-induced cytopathicity; conditions: Human immunodeficiency virus 1, 3B
[25] = Cytotoxicity against human MT4 cells expressing CD4 and CXCR4 assessed as cell viability; conditions: MT4 cells expressing CD4 and CXCR4
[26] = tested on: Human immunodeficiency virus 1; experiment: Ratio of IC50 for HIV1 NL4.3 infected in human PBMC to IC50 for HIV1 NL4.3 infected in human MT4 cells; assay type: functional
[27] = tested on: Human immunodeficiency virus 1; experiment: Ratio of IC90 for HIV1 NL4.3 infected in human PBMC to IC90 for HIV1 NL4.3 infected in human MT4 cells; assay type: functional

Row | IC50 [1] | IC50 [2] | IC90 [2] | IC50 [3] | IC50 [4] | IC50 [5] | IC50 [6] | IC50 [7] | IC50 [8] | IC50 [9] | Cmax [10] | Cmax [11] | IC50 [16] | Structure (SMILES) | further results
1 | > 10000 nM | 9 nM | 26 nM | > 10000 nM | > 10000 nM | > 10000 nM | > 10000 nM | > 10000 nM | 2 nM | 16 nM | 1200 ng/mL | 1700 ng/mL | – | NCCCCN(Cc1nc2ccccc2[nH]1)[C@H]1CCCc2cccnc21 [MAVORIXAFOR] | Vd (Rattus norvegicus [12]): 14.3 L/kg; t1/2 (Rattus norvegicus [13]): 3.5 h; bioavailability [14]: 22%; bioavailability [15]: 80%
2 | > 10000 nM | – | 559 nM | > 10000 nM | > 10000 nM | > 10000 nM | > 10000 nM | > 10000 nM | 30 nM | 69 nM | 4500 ng/mL | 800 ng/mL | 120 nM | c1ccc(CNCc2ccc(CN(Cc3nc4ccccc4[nH]3)[C@H]3CCCc4cccnc43)cc2)nc1 | IC50 [17]: 81 nM; Vd (Rattus norvegicus [18]): 5.5 L/kg; Vd (Canis familiaris [19]): 17.5 L/kg; t1/2 (Rattus norvegicus [20]): 2.9 h; t1/2 (Canis familiaris [21]): 5.7 h; bioavailability [22]: 48%; bioavailability [23]: 55%; IC90 [24]: 108 nM
3 | – | 277 nM | – | – | – | – | – | – | 60 nM | – | – | – | 250 nM | c1ccc(CNCc2ccc(CN(Cc3nc4ccccc4[nH]3)C3CCCc4cccnc43)cc2)nc1 (stereo not drawn) | CC50 [25]: 23000 nM; Ratio IC50 [26]: 5; Ratio [27]: 4; IC50 [24]: 60 nM
